From the SangsterLogP compilation

How the values were obtained:
[1] = method code SF, from DOI: 10.1021/jm00063a015, PMID: 8388471

logP | logP [1] | Structure (SMILES)
7.29 |  | CCCCCCCC(=O)n1cc(C[C@@H](NC(=O)CC2NC(=O)C3C4CCC(CC4)N3C2=O)C(=O)N[C@@H](Cc2ccccc2)C(=O)N(C)Cc2ccccc2)c2ccccc21 (stereo partly specified)
3.18 |  | CN(Cc1ccccc1)C(=O)C(Cc1ccccc1)NC(=O)C(Cc1c[nH]c2ccccc12)NC(=O)CC1NC(=O)C2C3CCC(CC3)N2C1=O (stereo unspecified)
3.85 |  | CN(Cc1ccccc1)C(=O)C(Cc1ccccc1)NC(=O)C(Cc1cn(C)c2ccccc12)NC(=O)CC1NC(=O)C2C3CCC(CC3)N2C1=O (stereo unspecified)
2.48 |  | CN(Cc1ccccc1)C(=O)C(Cc1ccccc1)NC(=O)C(Cc1cn(C(=O)CCCCCCN)c2ccccc12)NC(=O)CC1NC(=O)C2C3CCC(CC3)N2C1=O (stereo unspecified)
 | 5.66 | CN(Cc1ccccc1)C(=O)C(Cc1ccccc1)NC(=O)C(Cc1cn(C(=O)OCc2ccccc2)c2ccccc12)NC(=O)CC1NC(=O)C2C3CCC(CC3)N2C1=O (stereo unspecified)
3.15 |  | CN(Cc1ccccc1)C(=O)C(Cc1ccccc1)NC(=O)C(Cc1cn(C(=O)CCC(=O)O)c2ccccc12)NC(=O)CC1NC(=O)C2C3CCC(CC3)N2C1=O (stereo unspecified)
4.05 |  | COC(=O)n1cc(CC(NC(=O)CC2NC(=O)C3C4CCC(CC4)N3C2=O)C(=O)NC(Cc2ccccc2)C(=O)N(C)Cc2ccccc2)c2ccccc21 (stereo unspecified)
2.95 |  | CN(Cc1ccccc1)C(=O)C(Cc1ccccc1)NC(=O)C(Cc1cn(C(=O)OCCCCCCN)c2ccccc12)NC(=O)CC1NC(=O)C2C3CCC(CC3)N2C1=O (stereo unspecified)
5.33 |  | CN(Cc1ccccc1)C(=O)[C@H](Cc1ccccc1)NC(=O)[C@@H](Cc1cn(C(=O)OC(C)(C)C)c2ccccc12)NC(=O)CC1NC(=O)C2C3CCC(CC3)N2C1=O (stereo partly specified)
 | 3.47 | CN(Cc1ccccc1)C(=O)C(Cc1ccccc1)NC(=O)C(Cc1cn(C=O)c2ccccc12)NC(=O)CC1NC(=O)C2C3CCC(CC3)N2C1=O (stereo unspecified)
3.69 |  | CC(=O)n1cc(CC(NC(=O)CC2NC(=O)C3C4CCC(CC4)N3C2=O)C(=O)NC(Cc2ccccc2)C(=O)N(C)Cc2ccccc2)c2ccccc21 (stereo unspecified)
